Measurements from patent publication US10342795B2, “Substituted 4,5,6,7-tetrahydro-pyrazolo[1,5-a]pyrimidine derivatives and 2,3-dihydro-1H-imidazo[1,2-b]pyrazole derivatives as ROS1 inhibitors” (Janssen Pharmaceutica NV, priority 2014, dated 2019).

What was measured:
[1] = system: HCC78 non-small cell lung cancer cells; experiment: HCC78 cell proliferation assay; format: cell-based; settings: Homo sapiens, HCC78, 96 h; -log EC50 (M); 4 days, MTT; read-out: HCC-78 PROL pEC50 (converted)
Protocol: Approximately 1000 HCC78 non-small cell lung cancer cells in 180 μl of cell culture medium (RPMI-1640, 10% FBS, 2 mM L-Glutamine, 10 mM Hepes, 1 mM sodium pyruvate, 4.5 g/L glucose, 1.5 g/L sodium bicarbonate, 25 μg/ml Gentamycin) were seeded in each well of a 96-well polystyrene, tissue-culture treated plate and incubated at 37° C. and 5% CO2. After 24 hours, compounds were diluted in cell culture medium from which 20 μl was added to the wells containing cells and incubated for 4 days at 37° C. and 5% CO2. A 5 mg/ml solution of the tetrazolium dye MTT was prepared in PBS (phosphate-buffered saline) and 25 μl was added to each well. After 2 hours the medium was removed and replaced by 125 μL of 4/1 DMSO/glycine buffer (0.1M glycine, 0.1M NaCl, pH 10.5) before absorbance was determined at 538 nm.

[2] = system: Ba/F3 cells containing Ros1 wild-type protein + IL-3; experiment: Ba/F3-Ros1 cell proliferation counter-screen, wild-type Ros1 in the presence of murine IL-3; format: cell-based; settings: Mus musculus, BaF3, 24 h; -log IC50 (M); wild-type Ros1, 10 ng/ml murine IL-3 (counter-screen); read-out: BaF3-ROS1 + IL3 pIC50 (converted)
Protocol: (§1) This assay was carried out with Ba/F3 cells containing three different versions of Ros1: the wild-type protein, protein with a mutation at the gatekeeper residue (L2026M), and protein with a mutation identified in a tumor from a patient that became resistant to crizotinib (Xalkori®) treatment (G2032R). Compounds were solubilized in 100% DMSO (dimethyl sulfoxide) and sprayed into polystyrene, tissue culture treated 384-well plates. A 50 μl volume of cell culture medium (phenol red free RPMI-1640, 10% FBS (fetal bovine serum), 2 mM L-Glutamine) containing 20000 Ba/F3-Ros1 cells was added to each well and the plates were placed in an incubator at 37° C. and 5% CO2. After 24 hours, 10 μl of Alamar Blue solution (0.5 mM K3Fe(CN)6, 0.5 mM K4Fe(CN)6, 0.15 mM Resazurin and 100 mM Phosphate Buffer) was added to the wells, incubated for 4 hours at 37° C. and 5% CO2 before RFU's (Relative Fluorescence Units) (ex. 540 nm., em. 590 nm.) were measured in a fluorescence plate reader.
As a counter-screen the same experiment was performed for the wild-type protein in the presence of 10 ng/ml murine IL-3.

[3] = target: T1, Ros1 enzyme (Homo sapiens, UniProt P08922); experiment: Ros1 enzymatic assay; format: biochemical; settings: -log IC50 (M); 20 μM ATP, 120 min at room temperature; read-out: ROS1 pIC50 (converted)
T1 construct: 0.5 μg/ml Ros1 enzyme
T1 sequence (P08922 28-2347): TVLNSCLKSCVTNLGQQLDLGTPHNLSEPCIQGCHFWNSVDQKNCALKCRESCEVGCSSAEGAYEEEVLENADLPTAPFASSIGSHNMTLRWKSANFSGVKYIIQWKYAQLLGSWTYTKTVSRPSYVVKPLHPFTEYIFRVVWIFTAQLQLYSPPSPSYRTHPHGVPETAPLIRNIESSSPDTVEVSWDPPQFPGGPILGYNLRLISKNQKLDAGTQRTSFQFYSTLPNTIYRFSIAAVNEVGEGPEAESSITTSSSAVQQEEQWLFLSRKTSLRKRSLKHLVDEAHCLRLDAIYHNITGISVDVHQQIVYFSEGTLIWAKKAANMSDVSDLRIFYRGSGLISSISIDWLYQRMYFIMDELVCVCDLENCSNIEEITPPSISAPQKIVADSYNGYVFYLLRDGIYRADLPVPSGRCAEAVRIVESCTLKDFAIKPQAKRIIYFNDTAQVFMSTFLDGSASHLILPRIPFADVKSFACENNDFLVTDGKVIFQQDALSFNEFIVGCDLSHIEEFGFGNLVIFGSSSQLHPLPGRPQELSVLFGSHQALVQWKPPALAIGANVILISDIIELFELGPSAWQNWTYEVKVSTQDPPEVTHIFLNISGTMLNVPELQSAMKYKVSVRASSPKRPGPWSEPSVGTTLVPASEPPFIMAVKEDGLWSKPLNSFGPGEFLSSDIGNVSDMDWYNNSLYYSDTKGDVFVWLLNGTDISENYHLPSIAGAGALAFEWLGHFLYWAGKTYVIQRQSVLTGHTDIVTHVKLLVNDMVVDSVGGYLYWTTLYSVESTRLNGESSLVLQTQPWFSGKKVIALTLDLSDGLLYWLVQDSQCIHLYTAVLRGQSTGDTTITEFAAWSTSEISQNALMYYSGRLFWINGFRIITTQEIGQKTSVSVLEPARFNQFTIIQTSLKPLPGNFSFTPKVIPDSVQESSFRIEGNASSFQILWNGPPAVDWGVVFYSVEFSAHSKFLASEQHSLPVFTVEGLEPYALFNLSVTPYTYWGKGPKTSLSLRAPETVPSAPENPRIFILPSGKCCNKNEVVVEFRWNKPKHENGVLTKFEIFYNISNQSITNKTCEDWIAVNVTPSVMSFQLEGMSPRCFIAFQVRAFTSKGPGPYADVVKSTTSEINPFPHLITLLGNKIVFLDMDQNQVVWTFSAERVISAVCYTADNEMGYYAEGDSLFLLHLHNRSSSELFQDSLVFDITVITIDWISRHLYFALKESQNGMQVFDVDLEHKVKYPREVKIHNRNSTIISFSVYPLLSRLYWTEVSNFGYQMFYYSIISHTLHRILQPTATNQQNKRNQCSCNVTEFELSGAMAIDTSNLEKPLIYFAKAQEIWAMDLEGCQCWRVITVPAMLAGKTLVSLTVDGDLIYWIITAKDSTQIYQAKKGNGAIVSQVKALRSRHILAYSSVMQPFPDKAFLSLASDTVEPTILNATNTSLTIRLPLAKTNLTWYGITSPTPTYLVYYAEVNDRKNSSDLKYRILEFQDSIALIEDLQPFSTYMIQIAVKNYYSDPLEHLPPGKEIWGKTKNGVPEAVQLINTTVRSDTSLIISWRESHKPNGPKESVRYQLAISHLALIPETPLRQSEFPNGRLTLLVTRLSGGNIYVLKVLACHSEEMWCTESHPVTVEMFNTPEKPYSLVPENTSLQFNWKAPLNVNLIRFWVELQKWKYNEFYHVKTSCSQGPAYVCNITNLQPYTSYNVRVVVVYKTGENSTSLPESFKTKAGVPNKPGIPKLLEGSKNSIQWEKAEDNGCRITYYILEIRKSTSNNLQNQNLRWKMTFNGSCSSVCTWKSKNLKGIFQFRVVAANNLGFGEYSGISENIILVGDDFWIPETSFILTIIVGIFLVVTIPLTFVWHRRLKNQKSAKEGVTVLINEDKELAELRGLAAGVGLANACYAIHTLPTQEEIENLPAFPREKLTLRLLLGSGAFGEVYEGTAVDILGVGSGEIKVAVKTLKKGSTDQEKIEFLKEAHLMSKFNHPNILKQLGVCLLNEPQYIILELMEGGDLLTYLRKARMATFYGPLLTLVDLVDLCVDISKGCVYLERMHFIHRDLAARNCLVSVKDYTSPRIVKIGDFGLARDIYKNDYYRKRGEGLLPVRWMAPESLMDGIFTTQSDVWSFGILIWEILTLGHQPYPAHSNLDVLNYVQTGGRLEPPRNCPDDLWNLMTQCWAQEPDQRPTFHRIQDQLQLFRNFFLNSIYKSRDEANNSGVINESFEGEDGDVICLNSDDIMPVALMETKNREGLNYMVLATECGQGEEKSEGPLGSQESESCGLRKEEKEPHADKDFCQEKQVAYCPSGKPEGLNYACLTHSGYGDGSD
Protocol: Compounds were spotted onto white 384-well Proxiplate plus plates (Perkin Elmer) to which 5 μl of enzyme mix (0.5 μg/ml Ros1 enzyme, 50 mM Tris-HCl pH7.5, 1 mM EGTA, 10 mM MgCl2, 0.01% Tween-20) and 5 μl of substrate mix (6 μg/ml IRS-Tide [American Peptide Company], 20 μM ATP, 13.33 μCi/ml ATP (adenosine 5′-triphosphate) P^33, 50 mM Tris-HCl pH7.5, 1 mM EGTA (ethylene glycol-bis(2-aminoethylether)-N,N,N′,N′-tetraacetic acid), 10 mM MgCl2, 0.01% Tween-20) were added. After incubation for 120 minutes at room temperature, 10 μl of stop reaction buffer (5 mM EDTA, 50 μM ATP, 0.1% BSA (bovine serum albumin), 0.1% Triton X-100, 50 mM Tris-HCl pH7.5, 1 mM EGTA, 10 mM MgCl2, 0.01% Tween-20) containing 2 mg/ml streptavidin coupled polystyrene imaging beads (Amersham Biosciences) was added and incubated for 15 minutes at room temperature. Plates were centrifuged for 3 minutes at 1500 rpm and signals detected in a LEADseeker imaging system (GE).

[4] = target: Ba/F3 cells containing Ros1 wild-type protein (Homo sapiens, UniProt P08922, cells depend on it, form not given); experiment: Ba/F3-Ros1 cell proliferation assay, wild-type Ros1, without IL-3; format: cell-based, murine; settings: -log IC50 (M); wild-type Ros1, no IL-3, 24 h, Alamar Blue
Chain of Ba/F3 cells containing Ros1 wild-type protein (P08922 whole entry, change not shown): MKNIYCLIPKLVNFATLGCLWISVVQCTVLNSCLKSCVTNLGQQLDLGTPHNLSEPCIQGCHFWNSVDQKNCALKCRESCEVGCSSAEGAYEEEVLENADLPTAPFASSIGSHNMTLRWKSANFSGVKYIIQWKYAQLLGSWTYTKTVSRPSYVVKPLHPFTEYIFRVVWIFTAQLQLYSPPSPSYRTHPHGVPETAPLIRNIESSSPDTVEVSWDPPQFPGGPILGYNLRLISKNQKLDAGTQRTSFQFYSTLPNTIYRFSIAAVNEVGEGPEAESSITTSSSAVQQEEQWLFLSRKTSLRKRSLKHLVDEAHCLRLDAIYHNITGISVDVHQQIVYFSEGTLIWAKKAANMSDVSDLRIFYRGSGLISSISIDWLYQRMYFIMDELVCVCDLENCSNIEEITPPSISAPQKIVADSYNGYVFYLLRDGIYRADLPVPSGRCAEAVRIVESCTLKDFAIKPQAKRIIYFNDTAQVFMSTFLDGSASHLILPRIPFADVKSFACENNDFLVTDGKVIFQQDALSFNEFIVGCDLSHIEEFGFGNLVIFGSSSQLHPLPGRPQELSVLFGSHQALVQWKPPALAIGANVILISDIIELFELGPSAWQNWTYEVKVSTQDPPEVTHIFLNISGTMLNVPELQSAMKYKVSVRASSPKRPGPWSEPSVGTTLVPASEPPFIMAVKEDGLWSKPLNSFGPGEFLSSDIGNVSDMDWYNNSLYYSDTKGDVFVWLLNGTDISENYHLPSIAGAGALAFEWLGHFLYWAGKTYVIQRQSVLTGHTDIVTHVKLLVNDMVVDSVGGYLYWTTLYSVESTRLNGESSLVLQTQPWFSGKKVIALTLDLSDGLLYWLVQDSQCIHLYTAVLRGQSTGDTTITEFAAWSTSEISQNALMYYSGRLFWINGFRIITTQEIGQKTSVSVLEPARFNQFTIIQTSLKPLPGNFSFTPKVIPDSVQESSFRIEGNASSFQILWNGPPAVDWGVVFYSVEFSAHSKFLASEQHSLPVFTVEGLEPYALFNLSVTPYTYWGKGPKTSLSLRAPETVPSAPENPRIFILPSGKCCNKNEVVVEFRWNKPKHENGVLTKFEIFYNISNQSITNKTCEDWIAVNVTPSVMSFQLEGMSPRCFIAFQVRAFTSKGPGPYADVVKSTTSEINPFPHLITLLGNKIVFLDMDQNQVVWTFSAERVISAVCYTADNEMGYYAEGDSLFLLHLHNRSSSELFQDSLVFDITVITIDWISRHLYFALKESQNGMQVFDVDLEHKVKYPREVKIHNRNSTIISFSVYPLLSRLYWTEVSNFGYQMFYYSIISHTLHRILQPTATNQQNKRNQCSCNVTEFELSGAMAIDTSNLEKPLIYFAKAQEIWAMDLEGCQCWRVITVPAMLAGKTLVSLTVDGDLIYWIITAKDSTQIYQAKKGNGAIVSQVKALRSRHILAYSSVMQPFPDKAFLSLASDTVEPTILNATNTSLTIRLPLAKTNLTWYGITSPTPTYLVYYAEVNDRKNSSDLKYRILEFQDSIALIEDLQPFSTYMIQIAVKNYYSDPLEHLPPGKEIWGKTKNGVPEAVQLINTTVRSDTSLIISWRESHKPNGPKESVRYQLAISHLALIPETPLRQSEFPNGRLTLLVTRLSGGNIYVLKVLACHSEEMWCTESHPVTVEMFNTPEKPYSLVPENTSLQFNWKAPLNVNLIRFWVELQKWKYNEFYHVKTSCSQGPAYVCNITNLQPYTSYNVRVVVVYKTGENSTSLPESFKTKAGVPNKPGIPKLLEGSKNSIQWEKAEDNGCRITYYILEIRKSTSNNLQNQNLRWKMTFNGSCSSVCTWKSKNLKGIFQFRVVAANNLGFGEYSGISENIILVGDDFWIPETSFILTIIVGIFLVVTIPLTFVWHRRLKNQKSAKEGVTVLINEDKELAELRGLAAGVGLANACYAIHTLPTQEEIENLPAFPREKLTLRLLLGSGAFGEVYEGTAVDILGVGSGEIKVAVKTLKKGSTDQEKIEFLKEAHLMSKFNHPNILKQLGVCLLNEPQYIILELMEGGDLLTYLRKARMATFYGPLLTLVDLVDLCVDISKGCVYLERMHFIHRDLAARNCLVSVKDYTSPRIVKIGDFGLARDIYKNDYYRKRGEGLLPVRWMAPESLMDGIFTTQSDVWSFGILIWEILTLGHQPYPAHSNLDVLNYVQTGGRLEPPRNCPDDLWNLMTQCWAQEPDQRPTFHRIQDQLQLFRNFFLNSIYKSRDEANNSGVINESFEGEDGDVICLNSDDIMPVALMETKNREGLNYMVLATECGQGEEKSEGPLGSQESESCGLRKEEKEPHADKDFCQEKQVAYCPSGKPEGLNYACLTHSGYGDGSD
Protocol: as §1

[5] = target: Ba/F3 cells containing Ros1 L2026M (Homo sapiens, UniProt P08922, L2026M, cells depend on it, form not given); experiment: Ba/F3-Ros1 cell proliferation assay, L2026M gatekeeper mutant; format: cell-based, murine; settings: -log IC50 (M), no IL-3
Chain of Ba/F3 cells containing Ros1 L2026M (P08922 whole entry L2026M, form open): as the sequence (P08922 whole entry, change not shown) above, with L2026M counted along it
Protocol: as §1

## CC(C)c1ccc(COc2cc(F)c(-c3c(-c4ccncc4)nn4c3NCC4)cc2F)cc1 [Co. 2]
[1]
  EC50: 1.26e-08 M
[2]
  CC50: > 1e-05 M
[3]
  IC50: 2.51e-08 M
other
  melting point: 153 °C
[4]
  BaF3-ROS1 − IL3 pIC50: ~8.03
[5]
  Ba/F3 Ros1 L2026M (-IL-3) pIC50: 7.7

## CC(C)c1ccc(COc2ccc(-c3c(-c4ccncc4)nn4c3NCC4)c(C#N)c2)cc1 [Co. 3]
[2]
  CC50: > 1e-05 M
[3]
  IC50: 6.31e-08 M
other
  melting point: 191 °C
[4]
  BaF3-ROS1 − IL3 pIC50: 7.2
[5]
  Ba/F3 Ros1 L2026M (-IL-3) pIC50: 6.6

## CC(C)c1ccc(COc2ccc(-c3c(-c4ccncc4)nn4c3NCC4)cn2)cc1 [Co. 4]
[1]
  EC50: 6.31e-07 M
[2]
  CC50: 1.26e-06 M
[3]
  IC50: 1e-07 M
other
  melting point: 159 °C
[4]
  BaF3-ROS1 − IL3 pIC50: 7.1
[5]
  Ba/F3 Ros1 L2026M (-IL-3) pIC50: 7.1

## CC(C)c1ccc(COc2ccc(-c3c(-c4ccncc4)nn4c3NCC4)cc2)cc1C#N [Co. 6]
[2]
  CC50: > 1e-05 M
[3]
  IC50: 2e-07 M
other
  melting point: 158 °C
[4]
  BaF3-ROS1 − IL3 pIC50: 6.7
[5]
  Ba/F3 Ros1 L2026M (-IL-3) pIC50: 6.4

## CC(C)c1ccc(COc2ccc(-c3c(-c4ccncc4)nn4c3NCC4)cc2)c(F)c1F [Co. 8]
[1]
  EC50: 2e-06 M
[2]
  CC50: 3.98e-06 M
[3]
  IC50: 1.58e-06 M
other
  melting point: 149 °C
[4]
  BaF3-ROS1 − IL3 pIC50: 6.3
[5]
  Ba/F3 Ros1 L2026M (-IL-3) pIC50: 7.5

## CC(C)c1ccc(COc2ccc(-c3c(-c4ccncc4)nn4c3NCC4)cc2)cc1CC(O)CO (stereo not shown) [Co. 9]
[1]
  EC50: 5.01e-07 M
[2]
  CC50: > 1e-05 M
[3]
  IC50: 6.31e-08 M
[4]
  BaF3-ROS1 − IL3 pIC50: 7.3
[5]
  Ba/F3 Ros1 L2026M (-IL-3) pIC50: 5.5

## CC(C)c1ccc(COc2ccc(-c3c(-c4ccncc4)nn4c3NC(CO)C4)cc2)cc1 (stereo not shown) [Co. 11]
[1]
  EC50: 7.94e-07 M
[2]
  CC50: 2.51e-06 M
[3]
  IC50: 2.51e-07 M
[4]
  BaF3-ROS1 − IL3 pIC50: 7.0
[5]
  Ba/F3 Ros1 L2026M (-IL-3) pIC50: 6.8

## CC(C)c1ccc(COc2ccc(-c3c(-c4ccncc4)nn4c3N(CCCN)CC4)cc2)cc1 [Co. 12]
[1]
  EC50: 1.58e-06 M
[2]
  CC50: ~4.47e-06 M
[3]
  IC50: 5.01e-07 M
[4]
  BaF3-ROS1 − IL3 pIC50: 6.3
[5]
  Ba/F3 Ros1 L2026M (-IL-3) pIC50: 6

## CC(C)c1ccc(COc2ccc(-c3c(-c4ccncn4)nn4c3NCC4)cc2)cc1 [Co. 14]
[1]
  EC50: 1e-06 M
[2]
  CC50: ~7.41e-06 M
[3]
  IC50: 3.98e-07 M
other
  melting point: 109 °C
[4]
  BaF3-ROS1 − IL3 pIC50: 6.5
[5]
  Ba/F3 Ros1 L2026M (-IL-3) pIC50: 6.6

## CC(C)c1ccc(COc2ccc(-c3c(-c4ccncn4)nn4c3NCC4)c(F)c2)cc1 [Co. 15]
[1]
  EC50: 6.31e-07 M
[2]
  CC50: > 1e-05 M
[3]
  IC50: 2.51e-07 M
[4]
  BaF3-ROS1 − IL3 pIC50: 6.8
[5]
  Ba/F3 Ros1 L2026M (-IL-3) pIC50: <5

## CC(C)c1ccc(COc2ccc(-c3c(-c4ccncc4)nn4c3NCCC4)c(F)c2)cc1 [Co. 18]
[1]
  EC50: 3.98e-07 M
[2]
  CC50: > 1e-05 M
[3]
  IC50: 2e-08 M
other
  melting point: 188 °C
[4]
  BaF3-ROS1 − IL3 pIC50: 7.6
[5]
  Ba/F3 Ros1 L2026M (-IL-3) pIC50: 7.8

## CC(C)c1ccc(COc2ccc(-c3c(-c4ccncc4)nn4c3N(C)CCC4)cc2)cc1 [Co. 19]
[1]
  EC50: 7.94e-07 M
[2]
  CC50: > 1e-05 M
[3]
  IC50: 1e-07 M
other
  melting point: 120 °C
[4]
  BaF3-ROS1 − IL3 pIC50: 6.7
[5]
  Ba/F3 Ros1 L2026M (-IL-3) pIC50: 6.4

## CC(C)c1ccc(COc2ccc(-c3c(-c4ccncc4)nn4c3N(CCO)C(=O)CC4)cc2)cc1 [Co. 20]
[2]
  CC50: > 1e-05 M
[3]
  IC50: 3.16e-07 M
other
  melting point: 205 °C
[4]
  BaF3-ROS1 − IL3 pIC50: 6.8

## CC(C)c1ccc(COc2ccc(-c3c(-c4ccncc4)nn4c3N(CCO)CCC4)cc2)cc1 [Co. 21]
[2]
  CC50: > 1e-05 M
[3]
  IC50: 6.31e-08 M
other
  melting point: 147 °C
[4]
  BaF3-ROS1 − IL3 pIC50: 7.4
[5]
  Ba/F3 Ros1 L2026M (-IL-3) pIC50: 6.9

## CC(C)c1ccc(COc2ccc(-c3c(-c4ccncc4)nn4c3N(C)C(=O)CC4)cc2)cc1 [Co. 22]
[2]
  CC50: > 1e-05 M
[3]
  IC50: 5.01e-07 M
other
  melting point: 160 °C
[4]
  BaF3-ROS1 − IL3 pIC50: 6.4

## CC(C)c1ccc(COc2ccc(-c3c(-c4ccncc4)nn4c3NC(CO)CC4)c(F)c2)cc1 (stereo not shown) [Co. 23]
[1]
  EC50: 1e-07 M
[2]
  CC50: > 1e-05 M
[3]
  IC50: 3.16e-08 M
[4]
  BaF3-ROS1 − IL3 pIC50: 7.9
[5]
  Ba/F3 Ros1 L2026M (-IL-3) pIC50: 7.8

## CNC(=O)C1CCNc2c(-c3ccc(OCc4ccc(C(C)C)cc4)cc3)c(-c3ccncc3)nn21 (stereo not shown) [Co. 26]
[1]
  EC50: 1.58e-07 M
[2]
  CC50: > 1e-05 M
[3]
  IC50: 3.16e-08 M
[4]
  BaF3-ROS1 − IL3 pIC50: 7.1
[5]
  Ba/F3 Ros1 L2026M (-IL-3) pIC50: 6.7

## CNCC1CCNc2c(-c3ccc(OCc4ccc(C(C)C)cc4)cc3)c(-c3ccncc3)nn21 (stereo not shown) [Co. 27]
[2]
  CC50: ~6.31e-06 M
[3]
  IC50: 5.01e-07 M
[4]
  BaF3-ROS1 − IL3 pIC50: 6.3
[5]
  Ba/F3 Ros1 L2026M (-IL-3) pIC50: 5.5

## CC(C)c1ccc(COc2ccc(-c3c(-c4ccncc4)nn4cccnc34)cc2)cc1 [Co. A]
[2]
  CC50: > 1e-05 M
[3]
  IC50: 7.94e-08 M
[4]
  BaF3-ROS1 − IL3 pIC50: 6.8

## CC(C)c1ccc(COc2ccc(-c3c(-c4ccncc4)nn4cccnc34)c(F)c2)cc1 [Co. B]
[2]
  CC50: > 1e-05 M
[3]
  IC50: 2.51e-08 M
other
  melting point: 187 °C
[4]
  BaF3-ROS1 − IL3 pIC50: 7.2

## Cc1ccn2nc(-c3ccncc3)c(-c3ccc(OCc4ccc(C(C)C)cc4)cc3F)c2n1 [Co. C]
[1]
  EC50: 2e-07 M
[2]
  CC50: > 1e-05 M
[3]
  IC50: 3.16e-08 M
[4]
  BaF3-ROS1 − IL3 pIC50: 7.5
[5]
  Ba/F3 Ros1 L2026M (-IL-3) pIC50: 7.5

## COC(=O)c1ccn2nc(-c3ccncc3)c(-c3ccc(OCc4ccc(C(C)C)cc4)cc3)c2n1 [Co. G]
[2]
  CC50: > 1e-05 M
[3]
  IC50: 1e-06 M
[4]
  BaF3-ROS1 − IL3 pIC50: <5

## CCOC(=O)c1ccnc2c(-c3ccc(OCc4ccc(C(C)C)cc4)cc3)c(-c3ccncc3)nn12 [Co. H]
[2]
  CC50: > 1e-05 M
[3]
  IC50: 5.01e-07 M
other
  melting point: 140 °C
[4]
  BaF3-ROS1 − IL3 pIC50: 5.8
